From patent US10770169B2, “Method of providing a treatment to a subject based on a dynamic pathway map” (THE REGENTS OF THE UNIVERSITY OF CALIFORNIA, priority 2010, dated 2020)
Read-outs that look alike come from different tables or passages of the source.

Tested on: panel of 55 breast cancer cell lines
Assay: Cell growth inhibition assay (Cell Titer Glo, 72 h, 9 doses; GI50, TGI, LC50)
Assay type: cell-based, human

SMILES: Cc1cncc2cccc(S(=O)(=O)N3CCCN(C(=O)CN)C[C@@H]3C)c12 [Glycyl-H-1152]
- GI50 (Homo sapiens, AU565, AU565 cell line, censored GI50 values, read-out: GI50 (converted)): 7.24 µM
- GI50 (Homo sapiens, AU565, cell line AU565, read-out: GI50 (converted)): 7.24 µM
- GI50 (Homo sapiens, BT-20, BT20 cell line, censored GI50 values, read-out: GI50 (converted)): 7.08 µM
- GI50 (Homo sapiens, BT-20, cell line BT20, read-out: GI50 (converted)): 7.08 µM
- GI50 (Homo sapiens, BT-474, cell line BT474, read-out: GI50 (converted)): 66.1 µM
- GI50 (Homo sapiens, BT-483, cell line BT483, read-out: GI50 (converted)): 44.7 µM
- GI50 (Homo sapiens, CAMA-1, CAMA1 cell line, censored GI50 values, read-out: GI50 (converted)): 8.13 µM
- GI50 (Homo sapiens, CAMA-1, cell line CAMA1, read-out: GI50 (converted)): 8.13 µM
- GI50 (Homo sapiens, HCC38, HCC38 cell line, censored GI50 values, read-out: GI50 (converted)): 1.02 µM
- GI50 (Homo sapiens, HCC38, cell line HCC38, read-out: GI50 (converted)): 1.02 µM
- GI50 (Homo sapiens, HCC70, HCC70 cell line, censored GI50 values, read-out: GI50 (converted)): 0.813 µM
- GI50 (Homo sapiens, HCC70, cell line HCC70, read-out: GI50 (converted)): 0.813 µM
- GI50 (Homo sapiens, HCC1143, HCC1143 cell line, censored GI50 values, read-out: GI50 (converted)): 15.8 µM
- GI50 (Homo sapiens, HCC1143, cell line HCC1143, read-out: GI50 (converted)): 15.8 µM
- GI50 (Homo sapiens, HCC1187, HCC1187 cell line, censored GI50 values, read-out: GI50 (converted)): 0.832 µM
- GI50 (Homo sapiens, HCC1187, cell line HCC1187, read-out: GI50 (converted)): 0.832 µM
- GI50 (Homo sapiens, HCC1419, HCC1419 cell line, censored GI50 values, read-out: GI50 (converted)): 17 µM
- GI50 (Homo sapiens, HCC1419, cell line HCC1419, read-out: GI50 (converted)): 17 µM
- GI50 (Homo sapiens, HCC1428, cell line HCC1428, read-out: GI50 (converted)): 50.1 µM
- GI50 (Homo sapiens, HCC1500, cell line HCC1500, read-out: GI50 (converted)): 66.1 µM
- GI50 (Homo sapiens, HCC1937, cell line HCC1937, read-out: GI50 (converted)): 66.1 µM
- GI50 (Homo sapiens, HCC1954, cell line HCC1954, read-out: GI50 (converted)): 33.1 µM
- GI50 (Homo sapiens, HCC2185 cell line, censored GI50 values, read-out: GI50 (converted)): 2.88 µM
- GI50 (Homo sapiens, MCF7, cell line MCF7, read-out: GI50 (converted)): 21.4 µM
- GI50 (Homo sapiens, MDA-MB-134-VI, MDAMB134VI cell line, censored GI50 values, read-out: GI50 (converted)): 1.17 µM
- GI50 (Homo sapiens, MDA-MB-175-VII, MDAMB175VII cell line, censored GI50 values, read-out: GI50 (converted)): 33.1 µM
- GI50 (Homo sapiens, MDA-MB-231, MDAMB231 cell line, censored GI50 values, read-out: GI50 (converted)): 22.9 µM
- GI50 (Homo sapiens, MDA-MB-231, cell line MDAMB231, read-out: GI50 (converted)): 22.9 µM
- GI50 (Homo sapiens, MDA-MB-361, MDAMB361 cell line, censored GI50 values, read-out: GI50 (converted)): 33.1 µM
- GI50 (Homo sapiens, MDA-MB-361, cell line MDAMB361, read-out: GI50 (converted)): 33.1 µM
- GI50 (Homo sapiens, MDA-MB-415, MDAMB415 cell line, censored GI50 values, read-out: GI50 (converted)): 33.1 µM
- GI50 (Homo sapiens, MDA-MB-415, cell line MDAMB415, read-out: GI50 (converted)): 33.1 µM
- GI50 (Homo sapiens, MDA-MB-436, cell line MDAMB436, read-out: GI50 (converted)): 43.7 µM
- GI50 (Homo sapiens, MDA-MB-453, MDAMB453 cell line, censored GI50 values, read-out: GI50 (converted)): 28.2 µM
- GI50 (Homo sapiens, MDA-MB-453, cell line MDAMB453, read-out: GI50 (converted)): 28.2 µM
- GI50 (Homo sapiens, MDA-MB-468, MDAMB468 cell line, censored GI50 values, read-out: GI50 (converted)): 2.04 µM
- GI50 (Homo sapiens, MDA-MB-468, cell line MDAMB468, read-out: GI50 (converted)): 2.04 µM
- GI50 (Homo sapiens, SK-BR-3, cell line SKBR3, read-out: GI50 (converted)): 46.8 µM
- GI50 (Homo sapiens, SUM52PE, SUM52PE cell line, censored GI50 values, read-out: GI50 (converted)): 9.12 µM
- GI50 (Homo sapiens, SUM52PE, cell line SUM52PE, read-out: GI50 (converted)): 9.12 µM
- GI50 (Homo sapiens, SUM149PT, SUM149PT cell line, censored GI50 values, read-out: GI50 (converted)): 30.2 µM
- GI50 (Homo sapiens, SUM149PT, cell line SUM149PT, read-out: GI50 (converted)): 30.2 µM
- GI50 (Homo sapiens, SUM1315MO2, SUM1315MO2 cell line, censored GI50 values, read-out: GI50 (converted)): 11 µM
- GI50 (Homo sapiens, SUM-159-PT, SUM159PT cell line, censored GI50 values, read-out: GI50 (converted)): 1.74 µM
- GI50 (Homo sapiens, SUM-159-PT, cell line SUM159PT, read-out: GI50 (converted)): 1.74 µM
- GI50 (Homo sapiens, T47D, T47D cell line, censored GI50 values, read-out: GI50 (converted)): 15.1 µM
- GI50 (Homo sapiens, T47D, cell line T47D, read-out: GI50 (converted)): 15.1 µM
- GI50 (Homo sapiens, UACC-812, UACC812 cell line, censored GI50 values, read-out: GI50 (converted)): 38 µM
- GI50 (Homo sapiens, UACC-812, cell line UACC812, read-out: GI50 (converted)): 38 µM
- GI50 (Homo sapiens, ZR-75-1, ZR751 cell line, censored GI50 values, read-out: GI50 (converted)): 3.55 µM
- GI50 (Homo sapiens, ZR-75-1, cell line ZR751, read-out: GI50 (converted)): 3.55 µM
- GI50 (Homo sapiens, ZR-75B, cell line ZR75B, read-out: GI50 (converted)): 66.1 µM
- GI50 (Homo sapiens, cell line HCC2185, read-out: GI50 (converted)): 2.88 µM
- GI50 (Homo sapiens, cell line HCC3153, read-out: GI50 (converted)): 33.1 µM
- GI50 (Homo sapiens, cell line MDAMB134V, read-out: GI50 (converted)): 1.17 µM
- GI50 (Homo sapiens, cell line MDAMB175V, read-out: GI50 (converted)): 33.1 µM
- GI50 (Homo sapiens, cell line SUM1315MO, read-out: GI50 (converted)): 11 µM

SMILES: CNC(=O)c1c(F)cccc1Nc1nc(Nc2cc3c(cc2OC)CCN3C(=O)CN(C)C)nc2[nH]ccc12 [GSK1838705A]
- GI50 (600MPE cell line, censored GI50 values, value is the negative log10 of mol/L): 6.49
- GI50 (AU565 cell line, censored GI50 values, value is the negative log10 of mol/L): 5.63
- GI50 (BT20 cell line, censored GI50 values, value is the negative log10 of mol/L): 4.63
- GI50 (BT474 cell line, censored GI50 values, value is the negative log10 of mol/L): 5.08
- GI50 (BT483 cell line, censored GI50 values, value is the negative log10 of mol/L): 5.52
- GI50 (BT549 cell line, censored GI50 values, value is the negative log10 of mol/L): 5.21
- GI50 (CAMA1 cell line, censored GI50 values, value is the negative log10 of mol/L): 5.05
- GI50 (HCC38 cell line, censored GI50 values, value is the negative log10 of mol/L): 5.00
- GI50 (HCC70 cell line, censored GI50 values, value is the negative log10 of mol/L): 5.18
- GI50 (HCC202 cell line, censored GI50 values, value is the negative log10 of mol/L): 5.11
- GI50 (HCC1143 cell line, censored GI50 values, value is the negative log10 of mol/L): 5.55
- GI50 (HCC1187 cell line, censored GI50 values, value is the negative log10 of mol/L): 5.61
- GI50 (HCC1395 cell line, censored GI50 values, value is the negative log10 of mol/L): 5.28
- GI50 (HCC1419 cell line, censored GI50 values, value is the negative log10 of mol/L): 5.21
- GI50 (HCC1428 cell line, censored GI50 values, value is the negative log10 of mol/L): 5.79
- GI50 (HCC1500 cell line, censored GI50 values, value is the negative log10 of mol/L): 5.02
- GI50 (HCC1806 cell line, censored GI50 values, value is the negative log10 of mol/L): 4.27
- GI50 (HCC1937 cell line, censored GI50 values, value is the negative log10 of mol/L): 4.71
- GI50 (HCC1954 cell line, censored GI50 values, value is the negative log10 of mol/L): 5.08
- GI50 (HCC2185 cell line, censored GI50 values, value is the negative log10 of mol/L): 5.54
- GI50 (HCC3153 cell line, censored GI50 values, value is the negative log10 of mol/L): 5.26
- GI50 (LY2 cell line, censored GI50 values, value is the negative log10 of mol/L): 6.26
- GI50 (MCF7 cell line, censored GI50 values, value is the negative log10 of mol/L): 5.89
- GI50 (MDAMB134VI cell line, censored GI50 values, value is the negative log10 of mol/L): 5.06
- GI50 (MDAMB157 cell line, censored GI50 values, value is the negative log10 of mol/L): 5.05
- GI50 (MDAMB175VII cell line, censored GI50 values, value is the negative log10 of mol/L): 5.30
- GI50 (MDAMB231 cell line, censored GI50 values, value is the negative log10 of mol/L): 5.28
- GI50 (MDAMB361 cell line, censored GI50 values, value is the negative log10 of mol/L): 5.04
- GI50 (MDAMB415 cell line, censored GI50 values, value is the negative log10 of mol/L): 5.37
- GI50 (MDAMB436 cell line, censored GI50 values, value is the negative log10 of mol/L): 5.00
- GI50 (MDAMB453 cell line, censored GI50 values, value is the negative log10 of mol/L): 5.07
- GI50 (MDAMB468 cell line, censored GI50 values, value is the negative log10 of mol/L): 5.29
- GI50 (SKBR3 cell line, censored GI50 values, value is the negative log10 of mol/L): 5.16
- GI50 (SUM149PT cell line, censored GI50 values, value is the negative log10 of mol/L): 5.41
- GI50 (SUM159PT cell line, censored GI50 values, value is the negative log10 of mol/L): 5.46
- GI50 (SUM185PE cell line, censored GI50 values, value is the negative log10 of mol/L): 5.48
- GI50 (SUM225CWN cell line, censored GI50 values, value is the negative log10 of mol/L): 4.89
- GI50 (SUM1315MO2 cell line, censored GI50 values, value is the negative log10 of mol/L): 5.33
- GI50 (cell line 600MPE, value is the negative log10 of mol/L): 6.49
- GI50 (cell line AU565, value is the negative log10 of mol/L): 5.63
- GI50 (cell line BT20, value is the negative log10 of mol/L): 4.63
